Data on 3 compounds can be found in patent US20260048051A1, “TREATMENT OF INFLAMMATORY BOWEL DISEASE” (Atomwise Inc., priority 2024, published 2026).

pIC50: −log10 of the molar value.

In one data set the target is T1, TYK2-JH2 (Homo sapiens, UniProt P29597).
T1 construct: TYK JH2 enzyme mix (ChemPartner: CP20210818A-BV); purchased ChemPartner CP20210818A-BV
Put plainly: TYK2-JH2 HTRF binding assay (ligand efficiency). Particulars: calculated from binding-assay IC50 (Equation 1). In outline:
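HTRF competition binding: 0.5 nM His-tagged TYK2 JH2 preincubated 10 min at room temperature with compound (final 0.1 to 0.000005 μM), then 35 nM tracer and anti-6HIS Tb cryptate added for 60 min. Buffer 20 mM HEPES pH 7.5, 10 mM MgCl2, 0.01% Triton X-100, 1 mM DTT; TR-FRET Ex340/Em495/520. Ligand efficiency derived from binding IC50.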

In a further data set the test system is GM-CSF induced pSTAT5. As to the kind of experiment: GM-CSF induced pSTAT5 assay in CellSensor irf1-bla TF-1 cells. Format: cell-based. Conditions: Homo sapiens, GM-CSF 1 ng/mL, read-out: Cellular selectivity (GM-CSF induced pSTAT5). The protocol:
The CellSensor irfl-bla TF-1 cell line (LifeTechnologies, K1657) was cultured in RPMI 1640 Medium (Invitrogen 72400-047), 10% Fetal Bovine Serum (Invitrogen, 26400044), 1 mM Sodium pyruvate (Life Technologies, 11360039), 1% MEM NEAA (Life Technologies, 11140-035), 2 ng/ml of human recombinant GM-CSF (Fisher, PHC2015), 1% Penicillin/Streptomycin (Life Technologies, 15140-122) and 5 µg/ml of Blasticidin (ThermoFisher, A1113903).
The cell line was seeded in a T75 flask at 13×10^6 cells/50 mL in starvation medium (Opti-MEM™ I Reduced Serum Medium, no phenol red (Life Technologies, 11058-021), 1 mM Na pyruvate (Life Technologies, 11360039), 1% MEM NEAA (Life Technologies, 11140-035), and 1% Penicillin/Streptomycin (Life Technologies, 15140-122)) for 16 hours at 37° C. under 5% CO2 the day before the assay.
For the assay, CellSensor irfl-bla TF-1 cells were seeded at 30 000 cells/32 μL (starvation medium)/well in a 384-well plate.
Compounds were added on the cells in 4 μL (starvation medium)/well at 10× the final concentration. They were incubated for 30 minutes at 37° C.
Human recombinant carrier-free GM-CSF (ThermoFisher, ref PHC2015) was added to the wells in 4 μL (starvation medium)/well at 10×. The final concentration was 1 ng/mL. Control wells without GM-CSF treatment were added. Plates were incubated for 5 hours at 37° C.
6× LiveBlazer-FRET substrate (Invitrogen, K1085) was added to the wells at 8 μL/well. The substrate was prepared shortly before use by mixing 6 μL of solution A and 60 μL of solution B to 934 μL of solution C. Plates were incubated for 2.5 hours at room temperature in the dark. The plates were read on an Envision (Perkin Elmer) with an excitation at a wavelength of 409 nm and two wavelengths for the emission 520 nm and 450 nm. The ratio between the […] emission was used to calculate the IC50s.
The IC50 for the inhibition of pSTAT5 was calculated with the XLfit software using the 4 Parameter Logistic Model or Sigmoidal Dose-Response Model (model 205).

For a further data set, the system named is IL-6 induced pSTAT3. Put plainly: IL-6 induced pSTAT3 assay in TF-1 cells. The class given is cell-based. Conditions: Homo sapiens, read-out: Cellular selectivity (IL-6/pSTAT3). The procedure:
The following example describes the IL-6 induced pSTAT3 assay used to determine the cellular selectivity (IL-6/pSTAT3) of the TYK2 inhibitors.
TF-1 (ATCC®, CRL-2003™) cells were cultured in RPMI 1640 Medium, with GlutaMAX™ Supplement, HEPES for Cell Culture (Life Technologies, 72400047), 10% Fetal Bovine Serum (Life Technologies, 26400044), 2 ng/mL human recombinant GM-CSF (Life Technologies, PHC2013), 1 mM Sodium pyruvate (Life Technologies, 11360039), 1% MEM NEAA (Life Technologies, 11140-035), 1% Penicillin/Streptomycin (Life Technologies, 15140-122).
TF-1 (70×10^6) cells were starved overnight in T150 flasks (Opti-MEM™ I Reduced Serum Medium, no phenol red (Life Technologies, 11058-021), 1 mM Na pyruvate (Life Technologies, 11360039), 1% MEM NEAA (Life Technologies, 11140-035), and 1% Penicillin/Streptomycin (Life Technologies, 15140-122)) then seeded into 96-well TPP plates (150 000 cell/well) and incubated with test compounds (Final Concentration [nM]10000-0.05) for 30 minutes at 37° C. […] Stimulation was terminated by addition of lysis buffer (MSD K150SVD) and pSTAT3 detection was measured with Phospho-STAT3 (Tyr705) Kit MSD K150SVD)) according to manufacturer's instruction. Briefly, cell lysates were added to pre-blocked plates, sealed, and shake for 1 hour at room temperature. Plates were then washed and incubated with detection antibody for 1 hour at room temperature. After washing, Read Buffer was added, and plates were read on MSD instrument (Model 1300 MSD Quickplex SQ120).

Data set [1] can be described thus: Mouse plasma pharmacokinetics, PO 5 mg/kg. Format: in vivo. The protocol: The following example describes the methods used to evaluate the pharmacokinetics of TYK2 inhibitors in vivo following dosing of a compound of the invention.
The pharmacokinetics of test compounds were evaluated in either male CD-1 mice or male C57BL/6 mice when administered by oral gavage and IV bolus injection. The animals were allowed free access to food and water before administration. The plasma samples were analyzed by LC-MS/MS and the concentration of test compound at each time point was determined by linear regression. Pharmacokinetic parameters were calculated from the plasma concentrations by non-compartmental modeling using WinNonlin 8.2.
Oral composition. To prepare a pharmaceutical composition for oral delivery, the test articles described herein were dissolved in DMSO and then mixed with necessary volume of PEG400 followed by […] in water or 50% Kolliphor HS 15 in saline to provide the final concentrations of 0.5 mg/mL or 1 mg/mL (Table 8). The resultant mixtures were suitable for oral administration.
The PK parameters measured in mouse plasma after treatment with TYK2 inhibitor compounds via PO (oral administration) at 5 mg/kg are summarized below in Tables 9-11.

Data set [2] in a line: Brain exposure pharmacokinetics in rats. Format: in vivo. Conditions: male Sprague Dawley rats, oral gavage 10 mg/kg. The protocol:
The brain exposure of exemplary compounds, e.g., 1, 2, and 4 were evaluated in male Sprague Dawley rats after oral gavage administration at 10 mg/kg. The formulation was 5% DMSO+10% PEG400 in saline. Rats were fasted overnight with food returned 4 hours post-dose. CSF was collected by direct needle puncture into the cisterna magna.
(§1) For both rat and mouse studies, brain tissue was washed with 3 volumes of saline prior to homogenization. Brain tissue was homogenized with 3 volumes (v/w) of phosphate buffered saline. Plasma, brain homogenate, and CSF samples (rat only) were analyzed by LC-MS/MS and the concentration of test compound at each time point was determined by linear regression.
(§2) Pharmacokinetic parameters were calculated from the plasma, brain, and CSF concentrations by non-compartmental modeling using WinNonlin 8.2.

Data set [3] is described as follows: Brain exposure pharmacokinetics in mice. Conditions: male C57BL/6 mice, oral gavage 5 mg/kg. Format: in vivo. The procedure:
The brain exposure of 18 was evaluated in male C57BL/6 mice after oral gavage administration at 5 mg/kg. The formulation was 10% DMSO+40% PEG400 in saline. Mice were provided free access to food and water without fasting. Terminal sample collection of plasma and brain tissue were collected at […], 0.25, 0.5, 1, 2, and 4 hours post-dose with n=3 at each timepoint.
as §1, §2

T1 sequence (P29597 589-875 limits assumed): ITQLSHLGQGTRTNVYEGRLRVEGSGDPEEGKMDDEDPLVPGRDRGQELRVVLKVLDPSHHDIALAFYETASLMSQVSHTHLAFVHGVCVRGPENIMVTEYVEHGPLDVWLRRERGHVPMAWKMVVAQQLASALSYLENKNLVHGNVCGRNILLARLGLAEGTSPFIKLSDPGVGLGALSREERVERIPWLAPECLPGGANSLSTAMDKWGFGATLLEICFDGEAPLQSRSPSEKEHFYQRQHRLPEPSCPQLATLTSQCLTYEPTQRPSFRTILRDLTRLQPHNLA

In the case of `Cc1nc(Nc2cc(Nc3ncccc3S(C)(=O)=O)ncn2)ccc1[C@H](C)N1CC2(COC2)C1` (stereo in doubt) [Compound 12, N^4-(5-(1-(2-oxa-6-azaspiro[3.3]heptan-6-yl)ethyl)-6-methylpyridin-2-yl)-N^6-(3-(methylsulfonyl)pyridin-2-yl)pyrimidine-4,6-diamine], at TYK2-JH2, the “Ligand Efficiency” value is “††† (†††: >0.39)”. Besides, in the data set on GM-CSF induced pSTAT5, the pIC50 is greater than 5.40. For the same compound, in the data set with IL-6 induced pSTAT3, the pIC50 was greater than 5.40. Also, in data set [1], the “Half-life (t1/2)” value is recorded as “† (†: <1.0)”, the “Maximum plasma concentration (Cmax)” value is reported as “††† (†††: >1500)” and the “Total systemic exposure (AUCinf)” value is on record as “†† (††: 1000-2000)”.

Consider `C[C@@H](c1ccc(Nc2cc(Nc3ncccc3S(C)(=O)=O)ncn2)nc1)N(C)C` [Compound 4, (S)—N^4-(5-(1-(dimethylamino)ethyl)pyridin-2-yl)-N^6-(3-(methylsulfonyl)pyridin-2-yl) pyrimidine-4,6-diamine], for which the “Ligand Efficiency” value on TYK2-JH2 is reported as “††† (†††: >0.39)”. Besides, the “Brain Kpu, u” value in data set [2] is listed as “††† (††† >0.2 u)”.

Take `Cc1cccc(Nc2cc(Nc3ncccc3S(C)(=O)=O)ncn2)n1` [Compound 18, N^4-(6-methylpyridin-2-yl)-N^6-(3-(methylsulfonyl)pyridin-2-yl) pyrimidine-4,6-diamine]: the “Ligand Efficiency” value on TYK2-JH2 was “††† (†††: >0.39)”. In data set [3], the “Brain Kpu, u” value is on record as “††† (††† >0.2 u)”.
